# Assay: Metabolic stability in human liver microsomes
# Assay type: in vitro ADME
# Details: for differences in half-life and intrinsic clearance compared to rac-MBDB HCl salt (reference compound) / differences in half-life and intrinsic clearance compared to R-MBDB HCl salt (reference compound) / differences in half-life and intrinsic clearance compared to S-MBDB HCl salt (reference compound): based on Table Ex7; for half-life at 0.25 μM / microsomal CLint at 0.25 μM: pH 7.4, NADPH; for half-life at 0.25 μM / microsomal CLint at 0.25 μM / CLint / t1/2: 37° C.; for CLint / t1/2: NADPH
# Procedure: Microsomal Assay: Human liver microsomes (20 mg/mL) were obtained. β-nicotinamide adenine dinucleotide phosphate, reduced form (NADPH), magnesium chloride (MgCl2), and dimethyl sulfoxide (DMSO) were purchased from Sigma-Aldrich. Determination of Metabolic Stability: 7.5 mM stock solutions of test compounds of the above structural formula (e.g., of an embodiment or aspect of embodiment thereof described herein), or pharmaceutically acceptable salt thereof, are prepared in DMSO. […] The diluted microsomes were added to wells of a 96-well deep-well polypropylene plate in triplicate. […] Reactions were initiated by addition of pre-warmed NADPH solution. The final reaction volume is 0.5 mL and contains 4.0 mg/mL human liver microsomes, 0.25 μM test compound, and 2 mM NADPH in 0.1 M potassium phosphate buffer, pH 7.4, and 3 mM MgCl2. The reaction mixtures were incubated at 37° C., and 50 pL aliquots were removed at 0, 5, 10, 20, and 30 minutes and added to shallow-well 96-well plates which contain 50 pL of ice-cold ACN (acetonitrile) with internal standard to stop the reactions. The plates were stored at 4° C. for 20 minutes after which 100 pL of water was added to the wells of the plate before centrifugation to pellet precipitated proteins. Supernatants were transferred to another 96-well plate and analyzed for amounts of parent remaining by LC-MS/MS using an Applied Bio-systems API 4000 mass spectrometer. The same procedure was followed for the non-enriched counterpart of the compound and the positive control, 7-ethoxycoumarin (1 μM). Testing was done in triplicate.
# Data analysis: The in vitro T1/2s for test compounds were calculated from the slopes of the linear regression of % parent remaining (In) vs incubation time relationship.
# k=−[slope of linear regression of % parent remaining (In) vs incubation time] The apparent intrinsic clearance was calculated using the following equation: […]
smiles,measurement,value
"Cl.[2H]C([2H])([2H])NC(CC)Cc1ccc2c(c1)OCO2 (racemic) [Compound 2, 1-(1,3-Benzodioxol-5-yl)-N-(trideuteriomethyl)butan-2-amine hydrochloride]",differences in half-life and intrinsic clearance compared to rac-MBDB HCl salt (reference compound),demonstrates differences
same,half-life at 0.25 μM,1.87 h
same,microsomal CLint at 0.25 μM,12.4 µL/min/mg
"Cl.[2H]C([2H])([2H])NC(CC)Cc1ccc2c(c1)OC([2H])([2H])O2 (racemic) [Compound 4, 1-(2,2-Dideuterio-1,3-benzodioxol-5-yl)-N-(trideuteriomethyl)butan-2-amine hydrochloride]",differences in half-life and intrinsic clearance compared to rac-MBDB HCl salt (reference compound),significant differences
same,half-life at 0.25 μM,0.7 h
same,microsomal CLint at 0.25 μM,33 µL/min/mg
"Cl.[2H]C1([2H])Oc2ccc(CC(CC)NC)cc2O1 (racemic) [Compound 8, 1-(2,2-Dideuterio-1,3-benzodioxol-5-yl)-N-methyl-butan-2-amine hydrochloride]",differences in half-life and intrinsic clearance compared to rac-MBDB HCl salt (reference compound),significant differences
same,half-life at 0.25 μM,1.34 h
same,microsomal CLint at 0.25 μM,17.2 µL/min/mg
CCC(Cc1ccc2c(c1)OCO2)NC.Cl (racemic) [rac-MBDB HCl salt],CLint,11.9 μL/min/mg protein
same,t1/2,1.93 h
"Cl.[2H]C([2H])([2H])N[C@H](CC)Cc1ccc2c(c1)OCO2 [Compound 1, (2R)-1-(1,3-Benzodioxol-5-yl)-N-(trideuteriomethyl)butan-2-amine hydrochloride]",differences in half-life and intrinsic clearance compared to R-MBDB HCl salt (reference compound),significant differences
same,half-life at 0.25 μM,1.61 h
same,microsomal CLint at 0.25 μM,14.3 µL/min/mg
"Cl.[2H]C([2H])([2H])N[C@@H](CC)Cc1ccc2c(c1)OCO2 [Compound 3, (2S)-1-(1,3-Benzodioxol-5-yl)-N-(trideuteriomethyl)butan-2-amine hydrochloride]",differences in half-life and intrinsic clearance compared to S-MBDB HCl salt (reference compound),demonstrates differences
same,half-life at 0.25 μM,2.88 h
same,microsomal CLint at 0.25 μM,8.04 µL/min/mg
"Cl.[2H]C([2H])([2H])N[C@H](CC)Cc1ccc2c(c1)OC([2H])([2H])O2 [Compound 5, (2R)-1-(2,2-Dideuterio-1,3-benzodioxol-5-yl)-N-(trideuteriomethyl)butan-2-amine hydrochloride]",differences in half-life and intrinsic clearance compared to R-MBDB HCl salt (reference compound),significant differences
same,half-life at 0.25 μM,0.405 h
same,microsomal CLint at 0.25 μM,57.1 µL/min/mg
"Cl.[2H]C([2H])([2H])N[C@@H](CC)Cc1ccc2c(c1)OC([2H])([2H])O2 [Compound 6, (2S)-1-(2,2-Dideuterio-1,3-benzodioxol-5-yl)-N-(trideuteriomethyl)butan-2-amine hydrochloride]",differences in half-life and intrinsic clearance compared to S-MBDB HCl salt (reference compound),significant differences
same,half-life at 0.25 μM,0.91 h
same,microsomal CLint at 0.25 μM,25.4 µL/min/mg
"Cl.[2H]C1([2H])Oc2ccc(C[C@@H](CC)NC)cc2O1 [Compound 7, (2R)-1-(2,2-Dideuterio-1,3-benzodioxol-5-yl)-N-methyl-butan-2-amine hydrochloride]",differences in half-life and intrinsic clearance compared to R-MBDB HCl salt (reference compound),significant differences
same,half-life at 0.25 μM,0.628 h
same,microsomal CLint at 0.25 μM,36.7 µL/min/mg
"Cl.[2H]C1([2H])Oc2ccc(C[C@H](CC)NC)cc2O1 [Compound 9, (2S)-1-(2,2-Dideuterio-1,3-benzodioxol-5-yl)-N-methyl-butan-2-amine hydrochloride]",differences in half-life and intrinsic clearance compared to S-MBDB HCl salt (reference compound),significant differences
same,half-life at 0.25 μM,0.867 h
same,microsomal CLint at 0.25 μM,26.7 µL/min/mg
CC[C@H](Cc1ccc2c(c1)OCO2)NC.Cl [R-MBDB HCl salt],CLint,11.7 μL/min/mg protein
same,t1/2,1.98 h
CC[C@@H](Cc1ccc2c(c1)OCO2)NC.Cl [S-MBDB HCl salt],CLint,8.06 μL/min/mg protein
same,t1/2,2.87 h
COc1ccc2c(c1)[C@]13CCCC[C@@H]1[C@H](C2)N(C)CC3 [dextromethorphan],CLint,53.4 μL/min/mg protein

# From patent publication US20250034105A1, “IS[…] N-METHYL-1,3-BENZODIOXOLYLBUTANAMINE (MBDB) AND STEREOISOMERS THEREOF” (Terran Biosciences Inc., priority 2021, published 2025)
